Common to all, as to type: in vivo
Assay [1] has as its system Spodoptera frugiperda. Put plainly: Spodoptera frugiperda spray test. The conditions noted are these: foliar, 168 h, application rate 100 g/ha, maize leaf discs, caterpillars, after 7 days, read-out: efficacy. The method, then: (§1) [table] To produce a suitable active ingredient formulation, 1 part by weight of active ingredient is dissolved with the specified parts by weight of solvent and made up to the desired concentration with water containing an emulsifier concentration of 1000 ppm. To produce further test concentrations, the formulation is diluted with emulsifier-containing water. Leaf discs of maize (Zea mays) are sprayed with an active ingredient formulation of the desired concentration and, after drying, populated with caterpillars of the fall armyworm (Spodoptera frugiperda). After 7 days, the efficacy in % is determined. 100% means that all the caterpillars have been killed; 0% means that no caterpillar has been killed.

Assay [2] concerns Myzus persicae. Put plainly: Myzus persicae oral test. The conditions noted are these: 120 h, application rate 4 ppm, after 5 days, read-out: efficacy. As to the method:
[table] To produce a suitable active ingredient formulation, 1 part by weight of active ingredient is dissolved with the stated parts by weight of solvent and made up to the desired concentration with water. 50 μl of the active ingredient formulation are transferred into microtitre plates and made up to a final volume of 200 μl with 150 μl of IPL41 insect medium (33%+15% sugar). Subsequently, the plates are sealed with parafilm, which a mixed population of green peach aphids (Myzus persicae) within a second microtitre plate is able to puncture and imbibe the solution. After 5 days, the efficacy in % is determined. 100% means that all the aphids have been killed; 0% means that no aphids have been killed.

Assay [3] relates to Phaedon cochleariae. Nature of the assay: Phaedon cochleariae spray test. The following applies: 168 h, application rate 100 g/ha, larvae, after 7 days, read-out: efficacy. As to the method: as §1, with “water. Discs” for “water. Leaf discs”, “of Chinese cabbage leaves (Brassica pekinensis)” for “of maize (Zea mays)”, “with larvae” for “with caterpillars”, “the mustard beetle (Phaedon cochleariae).” for “the fall armyworm (Spodoptera frugiperda).”, “the beetle larvae” for “the caterpillars”, “no beetle larvae have” for “no caterpillar has”

Assay [4] deals with Myzus persicae. Put plainly: Myzus persicae spray test. The following applies: foliar, 120 h, application rate 100 g/ha, Chinese cabbage leaf discs, after 5 days, read-out: efficacy. As to the method: as §1, with “Discs” for “Leaf discs”, “Chinese cabbage leaves (Brassica pekinensis) infested by all stages of the green peach aphid (Myzus persicae)” for “maize (Zea mays)”, “concentration.” for “concentration and, after drying, populated with caterpillars of the fall armyworm (Spodoptera frugiperda).”, “5” for “7”, “aphids” for “caterpillars”, “aphids have” for “caterpillar has”

Take `CCS(=O)(=O)c1c(-c2nc3cc(C(F)(F)F)ncc3n2C)nc(-c2ccc(C(F)(F)F)cc2C)n1C` [Example I-078]: the pest or weed control at 100 g/ha in assay [1] and in assay [3] was 100% in each case. Also, the pest or weed control at 4 ppm in assay [2] turned out to be 90%.

With `CCS(=O)(=O)c1c(-c2nc3cc(C(F)(F)F)ncc3n2C)nc(C2=CCC(C(F)(F)F)CC2)n1C` (centres unmarked) [Example I-072], the pest or weed control at 4 ppm in assay [2] was determined as 100%. As to `CCS(=O)(=O)c1c(-c2nc3cc(C(F)(F)F)ncc3n2C)nc(C)n1C` [Example I-064], the pest or weed control at 4 ppm in assay [2] turned out to be 100%. Further, the pest or weed control at 100 g/ha in assay [3] was 83%; in assay [4] it was 100%. In the case of `CCS(=O)(=O)c1c(-c2nc3cc(C(F)(F)F)nnc3n2C)nc(Br)n1C` [Example I-056], the pest or weed control at 4 ppm in assay [2] came out at 100%. Regarding `CCS(=O)(=O)c1c(-c2nc3cc(C(F)(F)F)ncc3n2C)nc(-c2cnc(Cl)n2C)n1C` [Example I-059], the pest or weed control at 4 ppm in assay [2] is 100%. For the same compound, the pest or weed control at 100 g/ha in assay [3] and in assay [4] was 100% throughout.

For `CCS(=O)(=O)c1c(-c2nc3cc(C(F)(F)F)ncc3n2C)nc(-c2cccs2)n1C` [Example I-044], the pest or weed control at 4 ppm in assay [2] stood at 100%. Turning to `CCS(=O)(=O)c1c(-c2nc3cc(C(F)(F)F)ncc3n2C)nc(C#N)n1C` [Example I-045, 5-(Ethylsulfonyl)-1-methyl-4-[3-methyl-6-(trifluoromethyl)-3H-imidazo[4,5-c]pyridin-2-yl]-1H-imidazole-2-carbonitrile], the pest or weed control at 4 ppm in assay [2] is 100%.

On to `CCS(=O)(=O)c1c(-c2nc3cc(C(F)(F)F)ncc3n2C)nc(-n2cccn2)n1C` [Example I-026], for which the pest or weed control at 4 ppm in assay [2] turned out to be 100%. Moreover, the pest or weed control at 100 g/ha was determined as 100% in assay [3] and 90% in assay [4].

With `CCS(=O)(=O)c1c(-c2nc3cc(C(F)(F)F)ncc3n2C)nc(-c2cnc(C)s2)n1C` [Example I-058], in assay [2], the pest or weed control at 4 ppm came to 100%. Further, in assay [4], the pest or weed control at 100 g/ha turned out to be 90%. As to `CCS(=O)(=O)c1c(-c2nc3cc(C(F)(F)F)ncc3n2C)nc(C(=S)NC)n1C` [Example I-047], in assay [2], the pest or weed control at 4 ppm turned out to be 100%. The pest or weed control at 100 g/ha in assay [4] is 100%. Consider `CCS(=O)(=O)c1c(-c2nc3cc(C(F)(F)F)ncc3n2C)nc(-c2ccnn2C)n1C` [Example I-062], for which the pest or weed control at 4 ppm in assay [2] turned out to be 100%. In addition, the pest or weed control at 100 g/ha in assay [3] and in assay [4] was 100% in each case. Turning to `CCS(=O)(=O)c1c(-c2nc3cc(C(F)(F)F)ncc3n2C)nc(C(=S)N(C)C)n1C` [Example I-048], in assay [2], the pest or weed control at 4 ppm was 100%. Further, in assay [4], the pest or weed control at 100 g/ha is 90%. As to `CCS(=O)(=O)c1c(-c2nc3cc(C(F)(F)F)ncc3n2C)nc(-c2cn[nH]c2)n1C` [Example I-034], in assay [2], the pest or weed control at 4 ppm worked out at 100%. The pest or weed control at 100 g/ha in assay [4] was 90%. On to `CCc1nc(-c2nc3cc(C(F)(F)F)ncc3n2C)c(S(=O)(=O)CC)n1C` [Example I-084], for which, in assay [2], the pest or weed control at 4 ppm came out at 100%. Also, the pest or weed control at 100 g/ha in assay [4] amounted to 90%. The corresponding values for `CCS(=O)(=O)c1c(-c2nc3cc(C(F)(F)F)ncc3n2C)nc(CCC2CC2)n1C` [Example I-085, 2-[2-(2-Cyclopropylethyl)-5-(ethylsulfonyl)-1-methyl-1H-imidazol-4-yl]-3-methyl-6-(trifluoromethyl)-3H-imidazo[4,5-c]pyridine] are 100% and 90%. On to `CCS(=O)(=O)c1c(-c2nc3cc(C(F)(F)F)ncc3n2C)nc(-c2cncn2C)n1C` [Example I-052], for which, in assay [2], the pest or weed control at 4 ppm was 100%. Turning to `CCS(=O)(=O)c1c(-c2nc3cc(C(F)(F)F)ncc3n2C)nc(C(=O)NCC(F)(F)F)n1C` [Example I-037], the pest or weed control at 4 ppm in assay [2] was 90%. With `CCS(=O)(=O)c1c(-c2nc3cc(C(F)(F)F)ncc3n2C)nc(-c2cccn2C)n1C` [Example I-032], the pest or weed control at 4 ppm in assay [2] amounted to 100%.

Consider `CCS(=O)(=O)c1c(-c2nc3cc(C(F)(F)F)ncc3n2C)nc(C(=O)OC)n1C` [Example I-036, Methyl 5-(ethylsulfonyl)-1-methyl-4-[3-methyl-6-(trifluoromethyl)-3H-imidazo[4,5-c]pyridin-2-yl]-1H-imidazole-2-carboxylate], for which, in assay [2], the pest or weed control at 4 ppm amounted to 100%. Moreover, the pest or weed control at 100 g/ha in assay [3] and in assay [4] was 100% throughout. As for `CCS(=O)(=O)c1c(-c2nc3cc(C(F)(F)F)ncc3n2C)nc(-c2ccc(Cl)c(C#N)c2)n1C` [Example I-079], the pest or weed control at 4 ppm in assay [2] worked out at 100%. Moreover, the pest or weed control at 100 g/ha in assay [3] is 83%; in assay [4] it was 90%.

In the case of `CCS(=O)(=O)c1c(-c2nc3cc(C(F)(F)F)ncc3n2C)nc(-c2nccn2C)n1C` [Example I-053], in assay [2], the pest or weed control at 4 ppm amounted to 100%. Take `CCS(=O)(=O)c1c(-c2nc3cc(C(F)(F)F)ncc3n2C)nc(C2=CCCCC2)n1C` [Example I-071]: the pest or weed control at 100 g/ha in assay [4] came out at 90%. Regarding `CCS(=O)(=O)c1c(-c2nc3cc(C(F)(F)F)ncc3n2C)nc(-c2cc(Cl)sc2Cl)n1C` [Example I-031], in assay [2], the pest or weed control at 4 ppm was found to be 100%. For `CC(C)S(=O)(=O)c1c(-c2nc3cc(C(F)(F)F)ncc3n2C)nc(-c2ccn(C)n2)n1C` [Example I-061], the pest or weed control at 4 ppm in assay [2] was 100%. For the same compound, the pest or weed control at 100 g/ha in assay [3] and in assay [4] was 100% throughout. Regarding `CCS(=O)(=O)c1c(-c2nc3cc(C(F)(F)F)ncc3n2C)nc(-c2cc(C(F)(F)F)nn2C)n1C` [Example I-068], in assay [2], the pest or weed control at 4 ppm worked out at 100%. For the same compound, the pest or weed control at 100 g/ha in assay [3] amounted to 100%. For the compound `CCS(=O)(=O)c1c(-c2nc3cc(C(F)(F)F)ncc3n2C)nc(-c2cnn(CC(F)(F)F)c2)n1C` [Example I-067], in assay [2], the pest or weed control at 4 ppm is 100%. In addition, the pest or weed control at 100 g/ha in assay [3] and in assay [4] was 100% throughout. Take `CCS(=O)(=O)c1c(-c2nc3cc(C(F)(F)F)ncc3n2C)nc(Br)n1C` [Example I-004, 2-[2-Bromo-5-(ethylsulfonyl)-1-methyl-1H-imidazol-4-yl]-3-methyl-6-(trifluoromethyl)-3H-imidazo[4,5-c]pyridine]: in assay [2], the pest or weed control at 4 ppm came out at 100%. On the same count and under the same terms, then `CCS(=O)(=O)c1c(-c2nc3cc(C(F)(F)F)ncc3n2C)nc(Br)n1C(C)C` [Example I-002], with 100%.

For the compound `CCS(=O)(=O)c1c(-c2nc3cc(C(F)(F)F)ncc3n2C)nc(-c2cncs2)n1C` [Example I-051], the pest or weed control at 4 ppm in assay [2] amounted to 100%. Besides, the pest or weed control at 100 g/ha in assay [4] is 90%.

On to `CCS(=O)(=O)c1c(-c2nc3cc(C(F)(F)F)ncc3n2C)nc(-n2ccnc2)n1C` [Example I-028], for which the pest or weed control at 4 ppm in assay [2] was 100%. The pest or weed control at 100 g/ha in assay [3] came to 100%; in assay [4], 90%. Regarding `CCSc1c(-c2nc3cc(C(F)(F)F)ncc3n2C)nc(C(=O)OC)n1C` [Example I-035, Methyl 5-(ethylsulfanyl)-1-methyl-4-[3-methyl-6-(trifluoromethyl)-3H-imidazo[4,5-c]pyridin-2-yl]-1H-imidazole-2-carboxylate], in assay [3], the pest or weed control at 100 g/ha was 83%.

On to `CCS(=O)(=O)c1c(-c2nc3cc(C(F)(F)F)ncc3n2C)nc(-c2ccc(CC#N)cc2)n1C` [Example I-065], for which the pest or weed control at 4 ppm in assay [2] came out at 100%. Besides, the pest or weed control at 100 g/ha in assay [4] was 100%.

With `CCS(=O)(=O)c1c(-c2nc3cc(C(F)(F)F)ncc3n2C)nc(-c2cnccc2F)n1C` [Example I-017], the pest or weed control at 4 ppm in assay [2] was 100%. Also, the pest or weed control at 100 g/ha in assay [4] was 100%. Consider `CCS(=O)(=O)c1c(-n2cc3cnc(C(F)(F)F)cc3n2)nc(-c2ccccc2)n1C` [Example I-095], for which the pest or weed control at 100 g/ha in assay [1] was found to be 100%; in assay [4], 90%. For the same compound, the pest or weed control at 4 ppm in assay [2] is 100%. In the case of `CCS(=O)(=O)c1c(-c2nc3cc(C(F)(F)F)ncc3n2C)nc(-c2ccc(C#N)c(C(F)(F)F)c2)n1C` [Example I-080], in assay [2], the pest or weed control at 4 ppm was found to be 100%. Further, the pest or weed control at 100 g/ha in assay [3] came to 100%.

The record behind these values is patent publication US11083199B2, “Heterocycle derivatives as pesticides” (Bayer Aktiengesellschaft, priority 2017, dated 2021).
